How the values were obtained:
[1] = tested on: MLV(VSV-G Env) pseudotype particles; format: cell-based
[2] = tested on: MLV(VSV-G Env) pseudotype particles; format: cell-based; remark: listed apart in the source
[3] = tested on: MLV(VSV-G Env) particles that transduce a gfp-gene; format: cell-based
[4] = tested on: indicator cells (HEK293T expressing tPA-HA); details: increasing inhibitor concentrations up to 1 mM; due to cytotoxic effects

Cc1cn([C@H]2C[C@H](N=[N+]=[N-])[C@@H](CO)O2)c(=O)[nH]c1=O [AZT]
fluorescence readout signal with increasing concentrations of the inhibitor [1]: increased signal intensities | readout signal at concentrations higher than the optimal concentration [1]: decreased readout signals | cell populations after α-HA antibody staining [2]: just one (fluorescence positive) population | gfp fluorescence signal at the highest inhibitor concentration [3]: lowest fluorescence signal | fluorescence signal of indicator cells in absence of any particles [4]: decreasing fluorescence intensities

— patent publication US20080233558A1, “Inhibitors of viral entry screening method” (priority 2005, published 2008)
